Experimental data as given in ChEMBL document CHEMBL1201862, “PubChem BioAssay data set” (2004).
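Five concentrations, 48 hours, 96-well plates. GI50: concentration for 50% inhibition of growth.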 Calls of active or inactive are those of the source. No stated cut-off is given here; in the data, active = GI50 up to about 1.1 µM and inactive = higher.

Tests used:
Test in all cases: inhibition of tumour cell growth, NCI panel, 48 h
[1] = system: CCRF-CEM
[2] = system: RXF 393
[3] = system: MDA-N
[4] = system: COLO 205
[5] = system: SW-620
[6] = system: 786-0
[7] = system: MOLT-4
[8] = system: NCI/ADR-RES
[9] = system: SR
[10] = system: A549
[11] = system: UACC-62
[12] = system: SF-539
[13] = system: SN12C
[14] = system: SF-295
[15] = system: MDA-MB-435
[16] = system: A498
[17] = system: MCF7
[18] = system: HCT-15
[19] = system: HCC 2998

SMILES	GI50 [1]	GI50 [2]	GI50 [3]	GI50 [4]	GI50 [5]	GI50 [6]	GI50 [7]	GI50 [8]	GI50 [9]	GI50 [10]	GI50 [11]	GI50 [12]	GI50 [13]	GI50 [14]	GI50 [15]	GI50 [16]	GI50 [17]	GI50 [18]	GI50 [19]
COC(=O)c1cccc2c1Oc1ccccc1S2	23.4 µM (inactive)	33 µM (inactive)	> 100 µM (inactive)	19.6 µM (inactive)	59.6 µM (inactive)	42.9 µM (inactive)	24.5 µM (inactive)	34.4 µM (inactive)	> 100 µM (inactive)	75.2 µM (inactive)	> 100 µM (inactive)	55.1 µM (inactive)	56.6 µM (inactive)	60.8 µM (inactive)	> 100 µM (inactive)	85.3 µM (inactive)	37.2 µM (inactive)	46.1 µM	
Cc1ccc2c(C(=O)c3c(C)n(CCN4CCOCC4)c4ccccc34)cccc2c1	1.79 µM (inactive)	13.9 µM (inactive)	4.06 µM (inactive)		0.685 µM (active)	13.8 µM (inactive)	3.88 µM (inactive)	12.4 µM (inactive)	6.43 µM (inactive)	24.4 µM (inactive)	14.3 µM (inactive)	0.156 µM (active)	31.3 µM (inactive)	7.45 µM (inactive)	2.29 µM (inactive)	28.6 µM (inactive)	3.53 µM (inactive)	9.35 µM	
Cc1cc(S(=O)(=O)Nc2nc(N)n[nH]2)c(S)cc1Cl	> 10 µM (inactive)	> 10 µM (inactive)	> 10 µM (inactive)	> 10 µM (inactive)	> 10 µM (inactive)	> 10 µM (inactive)	> 10 µM (inactive)	> 10 µM (inactive)		> 10 µM (inactive)	> 10 µM (inactive)	> 10 µM (inactive)	> 10 µM (inactive)	> 10 µM (inactive)	> 10 µM (inactive)	> 10 µM (inactive)	> 10 µM (inactive)	> 10 µM	> 10 µM (inactive)
O=C(ON=c1c2ccccc2ccc2ccccc12)c1cc([N+](=O)[O-])cc([N+](=O)[O-])c1	25.5 µM (inactive)	> 100 µM (inactive)	83.8 µM (inactive)	> 100 µM (inactive)	> 100 µM (inactive)	> 100 µM (inactive)	31.8 µM (inactive)	48.4 µM (inactive)	35.2 µM (inactive)	49.8 µM (inactive)	63.4 µM (inactive)	> 100 µM (inactive)	67.1 µM (inactive)	43.8 µM (inactive)	> 100 µM (inactive)		65 µM (inactive)	53 µM	75.2 µM (inactive)
COC(=O)c1ccccc1C1CN=NC12Cc1c(C)c3c(c(C)c1C2=O)CCC3 (configuration not stated)	> 100 µM (inactive)	> 100 µM (inactive)	> 100 µM (inactive)	> 100 µM (inactive)	> 100 µM (inactive)	76.9 µM (inactive)	> 100 µM (inactive)	> 100 µM (inactive)		> 100 µM (inactive)	> 100 µM (inactive)	> 100 µM (inactive)	> 100 µM (inactive)	33.1 µM (inactive)	> 100 µM (inactive)	> 100 µM (inactive)	> 100 µM (inactive)	> 100 µM	> 100 µM (inactive)
O=c1cc(N2CCOCC2)[nH]c(=O)n1-c1ccc(F)cc1	> 100 µM (inactive)	> 100 µM (inactive)	> 100 µM (inactive)	> 100 µM (inactive)	> 100 µM (inactive)	> 100 µM (inactive)	> 100 µM (inactive)	> 100 µM (inactive)			> 100 µM (inactive)	> 100 µM (inactive)	> 100 µM (inactive)	> 100 µM (inactive)	> 100 µM (inactive)	> 100 µM (inactive)	> 100 µM (inactive)	> 100 µM	> 100 µM (inactive)
N#CC(Nc1ccccc1)c1ccc(C(C#N)Nc2ccccc2)cc1 (configuration not stated)	5.07 µM (inactive)	> 100 µM (inactive)	13.2 µM (inactive)	27.1 µM (inactive)	20.2 µM (inactive)	36.5 µM (inactive)	32.2 µM (inactive)	46.7 µM (inactive)		> 100 µM (inactive)	3.57 µM (inactive)	25.7 µM (inactive)	46.8 µM (inactive)	40 µM (inactive)	13.7 µM (inactive)	> 100 µM (inactive)	29 µM (inactive)	18.2 µM	30.3 µM (inactive)
Cc1ccc(C(=O)OCC(C)C)cc1/N=N/N(C)C	> 100 µM (inactive)		> 100 µM (inactive)	> 100 µM (inactive)	> 100 µM (inactive)	> 81.5 µM (inactive)	59.7 µM (inactive)	97.1 µM (inactive)	70.5 µM (inactive)	> 79.4 µM (inactive)	> 100 µM (inactive)	> 86.7 µM (inactive)	> 65 µM (inactive)	27 µM (inactive)	95.9 µM (inactive)		30.9 µM (inactive)	48.1 µM	> 100 µM (inactive)
Oc1ccc2oc3c(O)c4ccccc4cc3c2c1	1.5 µM (inactive)	2.44 µM (inactive)	0.927 µM (active)	10.6 µM (inactive)	0.69 µM (active)	5.93 µM (inactive)	1.07 µM (active)	3.03 µM (inactive)	1.72 µM (inactive)	24.9 µM (inactive)	0.121 µM (active)	1.75 µM (inactive)	2.36 µM (inactive)		0.948 µM (active)	2.45 µM (inactive)	3.33 µM (inactive)	1.98 µM	
CC1=C(C)CC2(C=C(C(C)(C)C)C(=O)C(C(C)(C)C)=C2)SC1	19.8 µM (inactive)	18.5 µM (inactive)	27.2 µM (inactive)	17.6 µM (inactive)	18.2 µM (inactive)	17.9 µM (inactive)	27.4 µM (inactive)	19.1 µM (inactive)	26.5 µM (inactive)	21.9 µM (inactive)	29.2 µM (inactive)	18.3 µM (inactive)	17.4 µM (inactive)	16 µM (inactive)	19.5 µM (inactive)	17.5 µM (inactive)	15.6 µM (inactive)		
N#Cc1cc(N(CCCl)CCCl)c([N+](=O)[O-])cc1[N+](=O)[O-]	19.2 µM (inactive)		> 100 µM (inactive)	> 100 µM (inactive)	> 100 µM (inactive)	81.1 µM (inactive)	24 µM (inactive)	> 100 µM (inactive)	2.89 µM (inactive)	83.8 µM (inactive)	> 100 µM (inactive)	> 100 µM (inactive)	48 µM (inactive)	> 100 µM (inactive)	> 100 µM (inactive)	> 100 µM (inactive)	86.3 µM (inactive)	> 100 µM	
CC1(C)O[C@H]2Cn3c(c(C#N)c4ccccc43)[C@H]2O1			> 100 µM (inactive)	> 100 µM (inactive)		> 100 µM (inactive)		> 100 µM (inactive)	> 100 µM (inactive)	> 100 µM (inactive)	> 100 µM (inactive)	> 100 µM (inactive)	> 100 µM (inactive)	> 100 µM (inactive)	> 100 µM (inactive)		> 100 µM (inactive)	> 100 µM	> 100 µM (inactive)
O=C(Oc1ccc(C(c2c(O)c3ccccc3oc2=O)c2c(O)c3ccccc3oc2=O)cc1)c1ccc(C(=O)c2ccccc2)cc1	22.6 µM (inactive)	27.3 µM (inactive)	36.1 µM (inactive)	29.2 µM (inactive)	32.7 µM (inactive)	33 µM (inactive)	20.7 µM (inactive)	17.3 µM (inactive)	26.1 µM (inactive)	25.3 µM (inactive)	19.6 µM (inactive)	17.3 µM (inactive)	43 µM (inactive)	22 µM (inactive)	20.3 µM (inactive)		29.4 µM (inactive)	37.2 µM	18.8 µM (inactive)
COc1ccc(-c2nc(-c3cnccn3)n(COCCO)n2)cc1	> 100 µM (inactive)	> 100 µM (inactive)	> 100 µM (inactive)	> 100 µM (inactive)	> 100 µM (inactive)	> 100 µM (inactive)	> 100 µM (inactive)	> 100 µM (inactive)	> 100 µM (inactive)	> 100 µM (inactive)	> 100 µM (inactive)	> 100 µM (inactive)	> 100 µM (inactive)	> 100 µM (inactive)	> 100 µM (inactive)		> 100 µM (inactive)	> 100 µM	> 100 µM (inactive)
CC1SC2(CCCCC2)N(NC(=O)CSc2nc3ccc(Cl)cc3c(=O)n2-c2ccccc2)C1=O (configuration not stated)	34.4 µM (inactive)	19.3 µM (inactive)	18.3 µM (inactive)	13.8 µM (inactive)	27.9 µM (inactive)	18.2 µM (inactive)	7.53 µM (inactive)	22.1 µM (inactive)		28.8 µM (inactive)	18 µM (inactive)	17.3 µM (inactive)	17.5 µM (inactive)	18.5 µM (inactive)	23.4 µM (inactive)	32.6 µM (inactive)	15.3 µM (inactive)	18.7 µM	20 µM (inactive)
COc1ccc2c(c1)CCc1c-2[nH]c2ccc(OC)cc12	14.4 µM (inactive)		> 100 µM (inactive)	> 100 µM (inactive)	> 100 µM (inactive)	> 100 µM (inactive)	> 100 µM (inactive)	> 100 µM (inactive)	> 100 µM (inactive)	> 100 µM (inactive)	> 100 µM (inactive)		> 100 µM (inactive)	> 100 µM (inactive)	> 100 µM (inactive)	> 100 µM (inactive)	> 100 µM (inactive)	> 100 µM	> 100 µM (inactive)
